Experiment [1] concerns the target T1, AM1 receptor (CLR-RAMP2) in HUVECs (Homo sapiens, UniProt O60895+Q16602).
T1 construct: HUVECs specifically express the AM1 receptor alone; host or cells: primary HUVECs
The experiment in a line: antagonism of agonist-induced cAMP accumulation in HUVECs. It is filed as cell-based. As to conditions: HUVEC; 100 nM. The protocol:
(§1) All primary cell lines were cultured as above. On the day of the experiment media was removed and cells washed with PBS, before being dissociated with Trypsin-EDTA 0.05% (Gibco, UK) and then resuspended in PBS/BSA (0.1%) (Sigma, UK). Cells were immediately plated for use in cAMP assay as per the manufacturer’s instructions, reagents used were provided by the LANCE® cAMP detection assay kit (PerkinElmer, Boston, MA, USA), in 384 well optiplates (PerkinElmer (Boston, MA, USA)) at 2000 cells/well in 5 μl aliquots. […] Cells were incubated with compound for 30 min prior to adding detection buffer[28],[60]. Plates were incubated for a further 60 min (room temperature) and then read on a plate reader (Mithras LB 940 microplate reader (Berthold technologies, Germany)). All responses were normalised to 100μM forskolin (Tocris, UK). Antagonist studies were performed in the same way through co-stimulation of the relevant concentration. Alongside control-treated cell. Experiments with PTX (Sigma, UK) required pretreatment (16 h) prior to assays.

For another experiment, the system named is AM receptors. As to conditions: at concentrations of up to 10 micromolar; ref Doods et al., Br. J. Pharmacol., 129, (2000), pp. 420-423; cited from earlier work.
For experiment [2], the target named is T2, CGRP receptor (CLR-RAMP1) in human cardiomyocytes (HCMs) (Homo sapiens, UniProt O60894+Q16602).
T2 construct: primary human cardiomyocytes (HCMs) since these cells only expressed CLR and RAMP1; host or cells: primary human cardiomyocytes (HCMs)
T2 sequence (Q16602 23-461): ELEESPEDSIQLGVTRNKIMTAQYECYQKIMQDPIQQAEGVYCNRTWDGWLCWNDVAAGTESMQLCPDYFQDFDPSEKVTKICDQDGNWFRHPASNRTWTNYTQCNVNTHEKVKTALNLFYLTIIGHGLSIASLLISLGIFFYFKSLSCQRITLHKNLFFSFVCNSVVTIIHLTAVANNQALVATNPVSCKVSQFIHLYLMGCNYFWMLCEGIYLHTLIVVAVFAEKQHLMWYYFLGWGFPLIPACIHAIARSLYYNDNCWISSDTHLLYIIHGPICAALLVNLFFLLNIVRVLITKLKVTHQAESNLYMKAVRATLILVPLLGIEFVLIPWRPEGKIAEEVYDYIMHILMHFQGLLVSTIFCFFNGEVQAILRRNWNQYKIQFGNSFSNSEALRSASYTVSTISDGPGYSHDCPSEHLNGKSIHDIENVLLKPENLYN
T2 sequence (O60894 27-148): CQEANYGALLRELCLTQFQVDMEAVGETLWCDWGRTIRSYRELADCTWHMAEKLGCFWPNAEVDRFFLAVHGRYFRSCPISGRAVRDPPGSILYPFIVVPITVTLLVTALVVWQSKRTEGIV
The experiment in a line: antagonism of agonist-induced cAMP accumulation in HCMs. It is filed as cell-based. As to conditions: HCM; 100 nM. The protocol: as §1
On the technique in general: cAMP levels reflect the balance of adenylyl cyclase and phosphodiesterase activity.

For experiment [3], the target named is T1, AM1 receptor (CLR-RAMP2) in HUVECs. Nature of the experiment: cAMP accumulation in HUVECs. It is filed as cell-based. As to conditions: HUVEC; calcitonin receptor agonists. The procedure:
(§2) Data are analysed using a three-parameter non-linear regression curve or the operational model of receptor agonism. g–h Signalling bias plots were calculated as ∆Log(τ/KA) (g) or ∆∆Log(τ/KA) (h) for each agonist and for each signalling pathway. […] Solid arrows indicate known pathways. Dashed arrows represent possible pathways.
All primary cell lines were cultured as above. On the day of the experiment media was removed and cells washed with PBS, before being dissociated with Trypsin-EDTA 0.05% (Gibco, UK) and then resuspended in PBS/BSA (0.1%) (Sigma, UK). […] Plates were incubated for a further 60 min (room temperature) and then read on a plate reader (Mithras LB 940 microplate reader (Berthold technologies, Germany)). […]
(§3) All sample sizes were determined, and data analysed, in accordance with the guidelines described by Curtis M et al.[65]. […] Statistical differences were analysed using one-way ANOVA followed by Dunnett’s post-hoc (for comparisons amongst more than two groups) or unpaired Student’s t test with Welch’s correction (for comparison between two groups). […] Having obtained values for τ and KA these were then used to quantify signalling bias as the change in Log(τ/KA)[19],[28]. […]

Experiment [4] has the same target. The experiment in a line: total nitric oxide production in HUVECs. Particulars: HUVEC. The format is cell-based. The protocol:
as §2
Endothelial cells and HCMs were cultured as above. 24 h prior to assay cells were plated on Costar 96-well black clear bottom plates at 40,000 cells/well. The assay was performed according to the manufacturer’s protocol. Briefly, cells pre-incubated with NO dye and assay buffer 1 (Fluorometric Nitric Oxide Assay Kit, Abcam, UK) for 30 min at 37 °C in 5% CO2. Any inhibitors requiring 30 min pre-treatment (YM/L-NAME/DMSO control) were added at this point. Ligand stimulation occurred immediately after this for 15 min at 37 °C in 5% CO2. Stain and ligand solution was removed, assay buffer II was added, and wells were read immediately. The absorbance was measured using a Tecan T200 (Thermo Fisher Scientific UK) reader with an excitation/emission of 540/590 nm. Endothelial cell responses were normalised to 10 μM acetylcholine. HCM responses were normalised to 10 μM isoproterenol[63],[64].
(§4) All sample sizes were determined, and data analysed, in accordance with the guidelines described by Curtis M et al.[65]. All experiments were appropriately controlled using ‘system pathway’ agonists. If any of these pathway controls generated inappropriate responses, then the entire data set was removed from analysis. […] Data analysis for cAMP accumulation, Ca^2+i mobilisation, NO accumulation, pERK1/2 activation, and cell proliferation assays were performed in GraphPad Prism 8.4 (GraphPad Software, San Diego). Data were fitted to obtain concentration–response curves using either the three-parameter logistic equation using to obtain values of Emax and pEC50 or the operational model of agonism. Statistical differences were analysed using one-way ANOVA followed by Dunnett’s post-hoc (for comparisons amongst more than two groups) or unpaired Student’s t test with Welch’s correction (for comparison between two groups). To account for the day-to-day variation experienced from the cultured cells, we used the maximal level of cAMP accumulation from cells in response to 100 μM forskolin stimulation was used as a reference, 10 μM ionomycin for Ca^2+i assays, 10 μM phorbol 12-myristate 13-acetate (PMA) for pERK1/2 activation, 10 μM acetylcholine for NO production and 10 μM VEGF for cell proliferation. […] Where appropriate the operational model for receptor agonism[27] was used to obtain efficacy (τ) and equilibrium disassociation constant (KA) values. In both cases, this normalisation removes the variation due to differences in days but retains the variance for control values. The means of individual experiments were combined to generate the curves shown. Having obtained values for τ and KA these were then used to quantify signalling bias as the change in Log(τ/KA)[19],[28]. Error for this composite measure was propagated by applying Eq. 1.1 PooledSEM=(SEMA)^2+(SEMB)^2 Where, SEMA and SEMB are the standard error of measurement A and B.

Experiment [5] has the same target. The experiment in a line: mobilisation of Ca2+i in HUVECs. As to conditions: HUVEC; Gαq/11/14 inhibitor co-treatment, 100 nM. The format is cell-based. The protocol: as §2
All cell lines were plated at 20,000 cells/well on 96-well black clear-bottom plates (Costar, UK) 24 h before the experiment. […] Cells were then washed twice with calcium-free HBSS, then were left in 100 μl calcium-free HBSS for the duration of the assay. […] Data was normalised to the response seen with 10 μM Ionomycin.
as §3, with “al.[65]. All experiments were appropriately controlled using ‘system pathway’ agonists. If any of these pathway controls generated inappropriate responses, then the entire data set was removed from analysis.” for “al.[65].”

The subject of the next experiment is HUVECs. Nature of the experiment: cell proliferation (72 h) of HUVECs. It is filed as cell-based, human. As to conditions: HUVEC, 72 h. The procedure: as §2
Both endothelial cell lines and HCMs were seeded at a density of 2500 cells/well in a clear flat bottom 96-well plate (Corning, UK) and incubated at 37 °C in 5% CO2. After 24 h, cells were exposed to test compounds or vehicle, in complete endothelial cell growth media (HUVECs) or myocyte growth media (HCMs). Cells were incubated for a further 72 h at 37 °C in 5% CO2. After 72 h incubation, 5 μl of Cell Counting Kit–8 (CCK-8, Sigma, UK) was added to each well and cells were then incubated for another 2 h at 37 °C in 5% CO2 and in the dark[61]. The absorbance of each well was measured using a Mithras LB940 microplate reader with an excitation of 450 nm. The absorbance is directly proportional to the number of viable cells. Cell proliferation was calculated as a percentage of number of cells treated with vehicle alone.
as §4

T1 sequence (Q16602 23-461): as the sequence (Q16602 23-461) above
T1 sequence (O60895 43-175): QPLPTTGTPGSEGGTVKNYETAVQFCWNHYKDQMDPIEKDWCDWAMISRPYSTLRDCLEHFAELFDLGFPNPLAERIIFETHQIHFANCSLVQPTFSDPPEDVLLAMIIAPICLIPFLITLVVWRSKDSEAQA

In the case of `NCCCC[C@H](NC(=O)[C@@H](Cc1cc(Br)c(O)c(Br)c1)NC(=O)N1CCC(N2Cc3ccccc3NC2=O)CC1)C(=O)N1CCN(c2ccncc2)CC1` [olcegepant], the “effect on agonist-induced cAMP accumulation” value in experiment [1] is listed as “had little effect”. The “action on AM receptors” value in the experiment with AM receptors was “no actions on AM receptors”. The “effect on cAMP accumulation for all three agonists” value in experiment [2] was “inhibit cAMP accumulation for all three agonists”.
With calcitonin: calcitonin receptor agonist, the functional response result in experiment [3] is on record as “unable to detect the presence of its transcript (Fig. 1a) or obtain a functional response”.
Turning to YM-254890, the “effect of YM-254890 on NO release” value in experiment [4] is recorded as “abolished all NO release”. The “effect of YM-254890 on Ca2+i responses” value in experiment [5] is reported as “all responses could be abolished”.
With “amylin: calcitonin receptor agonist (KCNTATCATQRLANFLVHSSNNFGAILSSTNVGSNTY; Islet amyloid polypeptide; UniProt P10997 34-70, looked up)”, the functional response result in experiment [3] is given as “unable to detect the presence of its transcript (Fig. 1a) or obtain a functional response”.
For the compound `C=C[C@@]1(C)CC(=O)[C@]2(O)[C@@]3(C)[C@@H](O)CCC(C)(C)[C@@H]3[C@H](O)[C@H](OC(C)=O)[C@@]2(C)O1` [forskolin], in the experiment with HUVECs, the “effect of forskolin on cell proliferation” value is given as “concentration-dependent inhibition of cell proliferation”.

Source of the values: publication PMC8222276 (Communications Biology, 2021).
